Tests used:
SKBR-3 cells [1] = assay: Confocal microscopy of spindle formation and nuclear fragmentation (Hoechst / anti-tubulin dual stain); type: cell-based, human; conditions: 12 h; for apoptosis / nuclear fragmentation / mitotic spindle formation / mitotic index: SKBr-3, 10 nM Taxol 4 h followed by 50 nM CNF-101 or vehicle
Procedure: Each experiment was repeated in triplicate.
The effects of Taxol®, CNF-101 and a combination of the two agents on nuclear fragmentation (a marker of apoptosis) and mitotic spindle formation in SKBR-3 cells were assessed.
In these sections, 4% of cells were undergoing mitosis and the mitotic cells appeared normal.

SKBR-3 cells [2] = assay: Cell cycle distribution by DNA content (FACS); type: cell-based, human; conditions: SKBR-3, 10 nM Taxol 4 h, 50 nM CNF-101 12–24 h, or reversed order
Procedure: Cells were trypsinized and analyzed by DNA content (an indication of cell cycle status) by fluorescent staining and FACS analysis. Cell cycle distribution was assayed according to Nusse et al., 1990, Cytometry, 11: 813, with a Becton Dickinson fluorescence-activated cell sorter and analyzed by Cell Cycle Multi-cycle system (Phoenix Flow System, San Diego, Calif.).

Row | SMILES | apoptosis / nuclear fragmentation (SKBR-3 cells [1]) | mitotic spindle formation / mitotic index (SKBR-3 cells [1]) | cell cycle distribution (SKBR-3 cells [2]) | cells undergoing mitosis (SKBR-3 cells [1]; SKBr-3, 50 nM CNF-101 alone (or neither drug)) [%]
1 | CC(=O)O[C@H]1C(=O)[C@@]2(C)[C@H]([C@H](OC(=O)c3ccccc3)[C@]3(O)C[C@H](OC(=O)[C@H](O)[C@@H](NC(=O)c4ccccc4)c4ccccc4)C(C)=C1C3(C)C)[C@]1(OC(C)=O)CO[C@@H]1C[C@@H]2O [Taxol®, paclitaxel] | little evidence of apoptotic nuclear fragmentation | increase in the mitotic index with all the mitotic cells appearing to have damaged spindles | massive G2-M arrest | 
2 | C=CCNC1=C2C[C@@H](C)C[C@H](OC)[C@H](O)[C@@H](C)/C=C(\C)[C@H](OC(N)=O)[C@@H](OC)/C=C\C=C(/C)C(=O)NC(=CC1=O)C2=O [CNF-101, 17-allylamino 17-demethoxygeldanamycin] | no significant apoptosis | no effect on the spindle | slightly enhanced the G1 fraction | 4
